Data: US4150970A, “Growth regulator for plants” (Board of Trustees of Michigan State University, priority 1977, dated 1979)

Assays:
field corn = test: Foliar spray and soil drench on field corn (Example IX); format: in vivo; conditions: for % increase: dry weight
Method: To determine the effect of triacontanol methods of treatment, differing amounts of triacontanol were applied to field corn by foliar spray and by drenching the soil. The plants were twelve days old at the time of treatment, and the plants were harvested when forty-two days old.
0.01 mg/l triacontanol applied by soil drench corresponds to 0.4 grams pe
acre. 0.10 mg/l corresponds to 4 grams per acre.

[1] = system: Tomato callus cell culture; test: Growth of tomato callus cell culture (Example XIX); format: cell-based, Lycopersicon esculentum, var. marglobe
Method: (§1) Cell cultures were separately grown in disposable petri dishes.
2. Tomato (Lycopersicon esculentum, var. marglobe)
(§2) The cultures were grown on the basic medium of mineral salts described by Linsmaier and Skoog (Physiol. Plant, […] (1965)). Vitamins and hormones varied for each tissue (Table X-1) to maintain the tissues in an undifferentiated state. For all of the tissues inositol was 100 mg/liter and agar 1%. Sucrose was 3% for all but the bean which was 2%.
(§3) Callus was produced from pith for tobacco, potato and tomato. Bean callus was produced from hypocotyl sections and barley callus from immature ovarian tissue. Subcultures were maintained on the appropriate media.
(§4) Stock solutions of triacontanol were prepared at a concentration of 100 μg/ml. The solvent used was glass distilled benzene. The lower concentrations were obtained by serial dilutions. Treatments were applied to 4.5 cm Whatman #1 filter paper disks in 100 μl aliquots. Controls received 100 μl of glass distilled benzene. The solvent was evaporated for approximately 15 minutes and the filter papers were then placed on the agar medium.
(§5) Callus tissue was then broken into pieces of approximately the same size (10 mg) and placed in the petri dishes on the treated filter paper (one piece per dish). For experiments conducted in the light the intensity was approximately 2.0 microwatts/cm^2 -namometer. Fresh weight measurements were made after 12 days of growth.

oat first-internode = conditions: published reports; cited from earlier work
IR-8 rice seedlings = test: Growth analysis (NAR, RGR, LAR) of IR-8 rice seedlings (Example V); format: in vivo
Method: Rice seed cv. IR-8, or Starbonnet was surface treated with 0.1 percent mercuric chloride and planted in 77 cc plastic cups containing vermiculite and watered with one-fourth Hoagland's nutrient solution containing 3 mM of nitrogen at pH 5.0. After 10 days, seedlings were transplanted to 220 cc specimen cups wrapped in aluminum foil and containing 180 cc of the same Hoagland's nutrient solution. Four seedlings were suspended in the solution with a sponge rubber disc. The plants were grown under a 8 h night at 25° C. and a 16 h day at 30° C. with 21 and 8 μwatts per cm^2 in the blue and red spectra respectively. In the test with varying light intensity the high light intensity was 30 13 and the low intensity was 15 and 8 μwatts per cm^2 for the blue and red spectra respectively. The nutrient solution was renewed every 2 or 3 days. After one week the plants were sorted for size and similar sized plants assigned to the same block for the experiment. Prior to the initiation of a test the plants in each cup were assigned treatment numbers by use of a random number table. […] Sixteen hours prior to a test the foil wrapped cups were tared, and filled with one-half Hoaglands solution containing 6 mM nitrogen. Eighteen μl of chloroform or chloroform containing 1.8 μg triacontanol were placed on 2 cm^2 of Whatman No. 1 filter papers, air dried and placed in the specimen cups. This concentration of 10 μg triacontanol/liter was used for all tests described in the following Examples except where specifically indicated to the contrary. Immediately prior to the test the cups were all brought up to 180 ml. including a set of cups without plants to measure evaporation.
The plants were disected at harvest into shoots and roots. The expanded leaves were cut at the ligule and the newest leaf at the point it entered the sheath. The surface area of expanded leaves were measured using a Lambda Model LI-3000 planimeter. The plants were dried to constant weight in an oven at 100° C. and the roots, expanded leaves, and sheaths were weighed separately.
Growth analysis was conducted according to Evans (1972). The Net Assimulation Rate (NAR) is the increase in plant weight per unit of leaf area over time interval where: W=total weight per plant in mg, T=time in days, and L=leaf area in cm^2. [formula]
The relative growth rate (RGR) is the increase in plant weight per unit of original weight over a time interval and is obtained by: [formula]
The leaf area ratio is the ratio of leaf area to […] over a time interval. [formula]
IR-8 rice seedlings were grown as above explained and were tested at 8 hour, 24 hour, 72 hour, and 216 hour intervals. Control (no treatment) plants are indicated by "0" and triacontanol treated plants are indicated by "+" in Table V. The Net Assimulation Rate (NAR), the Relative Growth Rate (RGR) and the Lead Area Ratio (LAR) was determined for each plant at each interval.

[2] = system: Potato callus cell culture; test: Growth of potato callus cell culture (Example XIX); format: cell-based, Solanum tuberosum, var. adveria
Method: as §1
3. Potato (Solanum tuberosum, var. adveria)
as §2, §3, §4, §5

Michigan 396 field corn = test: Single and multiple foliar applications on field corn (Example XII); format: in vivo
Text: Tests were run, under the conditions above described, to determine the response of "Michigan 396" field corn and "Larker" barley to single and multiple foliar applications of triacontanol at […]. Plants were one week old at time of first treatment and 25 days old at time or harvest. Table XII states the test results.

Mich. 396 Field Corn = test: Single and multiple applications on field corn at two fertility levels (Example XIV); format: in vivo
Method: Tests were run to study the effect of single and multiple applications of triacontanol on the growth of "Mich. 396 Field Corn" grown at two Fertility Levels in a greenhouse soil. Plants were treated at 14 days after planting and were harvested 37 days after planting. The following results were obtained (Table XIV).

[3] = foliar spray, 0.01 mg/l (first line)
[4] = foliar spray, printed 0.01 mg/l (second line)
[5] = printed 10.0 g triacontanol, 12 days

## CCCCCCCCCCCCCCCCCCCCCCCCCCCCCCO [Triacontanol, 1-triacontanol]
Field corn; corn seedlings
  application rate for maximum effectiveness: about 4 grams per acre
  effective application rate: about 0.4 grams per acre
Field corn; [3]
  Dry Weight: 408 mg/shoot
  % increase: 22%
Field corn; [4]
  Dry Weight: 463 mg/shoot
  % increase: 39%
Field corn; soil drench, 0.01 mg/l
  Dry Weight: 426 mg/shoot
  % increase: 22%
Field corn; soil drench, 0.10 mg/l
  Dry Weight: 519 mg/shoot
  % increase: 48%
[1]; [5]
  % of control: 140 % of control
  Fresh weight: 16.8
[1]; tomato
  growth of in vitro cell cultures: significant increases in growth
Oat first-internode
  growth, oat first-internode method: not active
IR-8 rice seedlings; 0-8 hours
  LAR (Leaf Area Ratio): 0.16
  NAR (Net Assimulation Rate): 3.39 mg plant wt per cm^2 per day
  RGR (Relative Growth Rate): 0.52 mg dry weight per mg original
IR-8 rice seedlings; 9-24 hours
  LAR (Leaf Area Ratio): 0.15
  NAR (Net Assimulation Rate): 0.90 mg plant wt per cm^2 per day
  RGR (Relative Growth Rate): 0.14 mg dry weight per mg original
IR-8 rice seedlings; 25-72 hours
  LAR (Leaf Area Ratio): 0.16
  NAR (Net Assimulation Rate): 1.03 mg plant wt per cm^2 per day
  RGR (Relative Growth Rate): 0.17 mg dry weight per mg original
IR-8 rice seedlings; 73-216 hours
  LAR (Leaf Area Ratio): 0.13
  NAR (Net Assimulation Rate): 1.15 mg plant wt per cm^2 per day
  RGR (Relative Growth Rate): 0.15 mg dry weight per mg original
IR-8 rice seedlings; first 8 hour and subsequent 16 hour period
  net assimilation (NAR) greater than control plants: 37%
[2]; potato
  growth of in vitro cell cultures: significant increases in growth
[2]; [5]
  % of control: 121 % of control
  Fresh weight: 23.5
Michigan 396 field corn; treated at 7, 12 and 18 days
  Dry wt, Corn: 562 mg/shoot
Michigan 396 field corn; treated at 7 and 12 days
  Dry wt, Corn: 542 mg/shoot
Michigan 396 field corn; treated at 12 and 18 days
  Dry wt, Corn: 614 mg/shoot
Michigan 396 field corn; treated at 7 days
  Dry wt, Corn: 548 mg/shoot
Michigan 396 field corn; treated at 12 days
  Dry wt, Corn: 522 mg/shoot
Michigan 396 field corn; treated at 18 days
  Dry wt, Corn: 486 mg/shoot
Mich. 396 Field Corn; high fertility, 1 application
  Dry Weight: 2.032 g/plant
Mich. 396 Field Corn; high fertility, 5 applications
  Dry Weight: 1.913 g/plant
Mich. 396 Field Corn; low fertility, 1 application
  Dry Weight: 1.297 g/plant
Mich. 396 Field Corn; low fertility, 5 applications
  Dry Weight: 1.696 g/plant
